Source: patent publication US20240099996A1, “METHODS FOR TREATING CANCER” (Radius Pharmaceuticals, Inc., priority 2015, published 2024)
Where a name gives a salt, the structure may show the parent alone.

Description: 8 post-menopausal females with advanced adenocarcinoma of the breast (ER+ tumor with no less than 1% staining by IHC, HER2-negative tumor with ECOG performance status of 0 or 1) were enrolled as subjects for this phase 1 study.
The subjects were treated with one dose at 200 mg or 400 mg p.o., q.d., and evaluated q8w until disease progression (FIG. 13).
TEAEs were recorded throughout the study.

CCNCCc1ccc(CN(CC)c2cc(OC)ccc2[C@@H]2CCc3cc(O)ccc3C2)cc1 [RAD1901, (6R)-6-(2-(N-(4-(2-(ethylamino)ethyl)benzyl)-N-ethylamino)-4-methoxyphenyl)-5,6,7,8-tetrahydronaphthalen-2-ol dihydrochloride]
death or dose limiting toxicities (200 mg or 400 mg p.o., q.d.): No death or dose limiting toxicities were observed | maximum tolerated dose (MTD) (200 mg or 400 mg p.o., q.d.): not established | patients with treatment-related dyspepsia (200 mg or 400 mg p.o., q.d.): 5/8 | patients with treatment-related nausea (200 mg or 400 mg p.o., q.d.): 3/8 | dose limiting toxicities (200 mg p.o., q.d. up to 6 months, 400 mg p.o., q.d. up to two months): No dose limiting toxicities were observed | serious AEs (SAEs) observed (one grade 3 treatment-related constipation, one shortness of breath not related): Two
